pEC50: −log10 of the molar value.
Legend:
[1] = test system: intracellular cAMP, HEK-293 cells; assay: Forskolin titration in HEK-293 cells transfected with CPM-hRL/RIIβB biosensor (201325.78.E5); assay type: cell-based
Protocol: 100 μl HEK-293 cells were plated in a 96 well plate and grown to 70-90% confluency in DMEM/F12 with HEPES buffer (Invitrogen) with 10% FBS at 37° C. with 5% CO2.
Cells were transfected with TransIt®-LT1 Reagent (MIRUS) using 0.3 μl TransIt®-LT1 reagent and 0.15 μg DNA (CPM-hRL/RIIβB cAMP biosensor with X/Y peptide linker lengths of (X=4, Y=20) (201325.78.E5)) per well of a 96-well plate. Cells were allowed to grow overnight and were assayed the next day.
Approximately 1 day after transfection, cells were removed from incubator and equilibrated to room temperature. A 10 μl aliquot of 600 μM EnduRen Live Cell Substrate (Promega) was added to a total of 100 μl of cell culture to give a final concentration of approximately 60 μM coelentrazine. Cells were then incubated at room temperature for at least 15 minutes. After 15 minutes at room temperature, baseline measurements of luminescence were measured using a 96-well Veritas Luminometer (Turner) at 0.5 seconds per well. Cells were then induced with 0.025 μM-250 μM forskolin (Sigma) or not induced (0.1% DMSO (Sigma)) and luminescence was measured continuously for about 30 minutes (FIG. 19). Samples were measured in sets of 5 replicates per concentration of forskolin. EC50s were calculated using GraphPad Prism for Windows, Version 4.

[2] = test system: intracellular cAMP concentration, HEK 293 cells; assay: Intracellular cAMP changes in HEK 293 cells transiently transfected with CPM-FF Luc/RIIβB (pBFB141); assay type: cell-based; settings: HEK 293 cells, pBFB141; 10 μM isopreterenol or 50 mM forskolin (so in the source), treatment alone, room temperature
Protocol: Cells were cultured in 60 ml in DMEM/F12 with HEPES buffer (Invitrogen) with 10% FBS at 37° C. with 5% CO2.
The ORF encoding the CPM-FF Luc/RIIβB based cAMP biosensor with X/Y linker lengths of (X=10, Y=0) was transferred to Flexi vector pF4K (Flexi vector system; Promega Corp.). The resultant plasmid construct (pBFB141) utilizes an upstream CMV promoter for expression of the associated cAMP biosensor in mammalian cells.
Cells were transfected with TransIt®-LT1 Reagent (MIRUS) using 0.3 μl TransIt®-LT1 reagent and 0.15 μg DNA per well of a 96 well plate. Cells were allowed to grow overnight and were assayed the next day.
Approximately 1 day after transfection, cells were removed from the incubator and equilibrated to room temperature. A 5 μl aliquot of 100 mM Luciferin EF was added to a total of 90 μl of cell culture plus transfection reagent to give a final concentration of approximately 5 mM luciferin. Cells were then incubated at room temperature for at least 90 minutes. After 90 minutes at room temperature, baseline measurements of luminescence were measured using a 96 well Veritas Luminometer (Turner Biosystems; integration time of 0.5 seconds per well). Cells were then induced with 10 μM isopreterenol (CalBiochem), 50 mM forskolin (Sigma) or not induced (0.1% DMSO, Sigma) and luminescence was measured continuously for about 30 minutes. After 30 minutes, […] (Sigma) was added to cells with isopreterenol and 0.1% DMSO was added to all other samples. Luminescence was then measured continuously for the next 30 minutes. A final addition of 50 μM forskolin was added to the isopreterenol/propranolol sample and 0.1% DMSO was added to all other samples. Luminescence was then measured continuously for the next half hour. Samples were measured in sets of 12 replicates. 10× stocks of isopreterenol, propranolol, forskolin and DMSO were made in 1×PBS (Invitrogen).

[3] = test system: intracellular cAMP concentration, HEK 293 cells; assay: Intracellular cAMP changes in HEK293 cells with CPM-hRL Luc/RIIβB biosensors (isopreterenol, propranolol, forskolin); assay type: cell-based
Protocol: Cells were cultured in 2 mL DMEM/F12 with HEPES buffer (Invitrogen) and 10% FBS at 37° C. with 5% CO2 in a 6 well plate. Three of the constructs described in Example XVII were used to detect intracellular changes of cAMP concentrations. The constructs used were: pBFB277, pBFB279 and pBFB287. HEK293 cells stably expressing CPM91-hRL/RIIβB (ORF derived from 201325.44.H6 were also used in these experiments. HEK293 cells were transfected with TransIt®-LT1 Reagent (MIRUS) using 6 μL TransIt®-LT1 reagent and 2 μg DNA (pBFB277, pBFB279 and pBFB287) per well of a 6 well plate. Cells were allowed to grow overnight and were assayed the next day. Approximately 1 day after transfection, cells were trypsinized, resuspended in fresh DMEM/F12 with HEPES buffer (Invitrogen) with 1% FBS and plated in a 96 well plate at approximately 10,000 cells per well. Alternatively, a HEK293 cell line stably expressing CP91-hRL/RIIβB was plated in a 96 well plate at approximately 10,000 cells per well. A 10 μL aliquot of 600 μM EnduRen was added to a total of 100 μL of cell culture to give a final concentration of approximately […]. Cells were then incubated at 37° C. with 5% CO2. After 5 hours, the plate was removed from the incubator and allowed to cool to room temperature for at least 20 minutes. After 20 minutes, baseline measurements of luminescence were measured using a 96 well Veritas Luminometer (Turner Biosystems; integration time of 0.5 seconds per well). Cells were then induced with 10 μM isopreterenol (CalBiochem), 50 μM forskolin (Sigma) or not induced (0.1% DMSO, Sigma) and luminescence was measured continuously for about 30 minutes. After 30 minutes, 10 μM propranolol (Sigma) was added to cells already induced with isopreterenol and 0.1% DMSO was added to all other samples. Luminescence was then measured continuously for the next 30 minutes. A final addition of 50 μM forskolin was added to the isopreterenol/propranolol sample and 0.1% DMSO was added to all other samples. Luminescence was then measured continuously for the next half hour. Samples were measured in sets of 4-6 replicates. 10× stocks of isopreterenol, propranolol, forskolin and DMSO were made in DMEM/F12 with HEPES buffer (Invitrogen) and 1% FBS.

[4] = test system: intracellular cAMP, HEK293 cells; assay: HEK293 cells stably expressing CP234-Luc/RIIB, forskolin stimulation and Z′ measurement; assay type: cell-based
Protocol: The ORF from pBFB135, under the class of biosensors called “CPM-FF Luc/RIIβB,” was used to generate the transient and stable cells lines described below. These cell lines are called “CP234-Luc/RIIB,” “cAMP LucSensor,” “LucSensor,” and “FF cAMP Sensor.”
HEK293 cells stably expressing CP234-Luc/RIIB (ORF derived from pBFB135) were resuspended in complete media and mixed with 5 mM luciferin-EF. Cells were plated at 1×10^5 cells per well in a 96 well plate and equilibrated to room temperature for 1.5 hours. After stimulation with forskolin, luminescence was measured at 15 minutes using a GloMax™ Luminometer.
For a Z′ measurement, 2×10^4 cells were aliquoted per well to a 384-well plate and equilibrated using a similar protocol. Half the plate was induced with […], whereas the other half remained uninduced. Luminescence was captured 15 minutes after induction using a TECAN GENios Pro™ luminometer. The fold of induction was 6.1 and Z′ was 0.83. Since assays with Z′ greater than 0.5 are considered good quality for high-throughput screening (HTS), the cAMP biosensor-based assay is amenable for HTS.

[5] = target: T1, Akt1/PKB alpha recombinant enzyme (Homo sapiens, UniProt P31749); assay: In vitro serine/threonine kinase sensor assay with Akt1/PKB; assay type: biochemical; settings: 10 ng Akt1/PKB alpha, 30° C., 20 minutes
T1 construct: purchased Upstate Biotechnology
Protocol: Constructs pBFB335, 336, 338, 339, 340, 417, 418, 419, 422, 22 and 8 were tested in vitro using TNT® T7 Coupled Reticulocyte Lysate System (Promega Corp.). […] Luminescence was measured using a Turner 20/20N luminometer (Turner Biosystems; 1 second integration time). All samples were measured in triplicate. […]
The protocol for other Serine/Threonine kinase sensors is identical to the one above except that for the CPM hRL Luc samples, 5 μL of sample are added to a 96 well plate+5 μL 2× Renilla lysis buffer without detergents (150 mM HEPES, 100 mM Thiourea) and 100 μL Renilla Assay Reagent (Promega Corp.) is added by injectors using a Veritas Microplate Luminometer and luminescence is measured (Turner Biosystems; Bright-Glo program; 3 second integration time). FF Luc samples are measured by adding 100 μL of Luciferase Assay Reagent (LAR; Promega Corp.), to 5 μL of sample in a 96 well plate, by injectors using a Veritas Microplate Luminometer and luminescence measured (Turner Biosystems; Bright-Glo program; 3 second integration time).

[6] = CPM-FF Luc calcium biosensors, 10 mM CaCl2 or 10 mM EDTA plus 2.5 mM EGTA; assay type: biochemical; settings: 10 mM CaCl2 vs 10 mM EDTA plus 2.5 mM EGTA
Protocol: Calcium biosensors were prepared by fusing sequences encoding a circularly permuted firefly luciferase having engineered N- and C-termini at residues 234 and 233, respectively, to sequences encoding protein domains that bind calcium. One type of calcium biosensor utilized a mutant of fast chicken skeletal muscle troponin C (TnC) (amino acids 15-163; N109D, D111N, N145D, D147N; Genbank NM_205450) [Met-(Luc2.0 234-544)-(Linker X)-(TnC)-(Linker Y)-(Luc2.0 4-233)-Val], and the second type of calcium biosensor utilized human calmodulin (CaM) (amino acids 5-148; Genbank BC005137) [Met-Luc+ (234-544)-(Linker X)-human Calmodulin (5-148)-(Linker Y)-Luc+ (4-233)].
CPM-FF Luc/TnC and CPM-FF Luc/CaM constructs with varying X/Y peptide linker lengths were expressed in vitro using the T7 Coupled Reticulocyte Lysate System (pBFB225, pBFB226, pBFB227, pBFB7; FIG. 24). Reactions were then supplemented with 10 mM CaCl2 or 10 mM EDTA plus 2.5 mM EGTA.

T1 sequence (P31749 whole entry): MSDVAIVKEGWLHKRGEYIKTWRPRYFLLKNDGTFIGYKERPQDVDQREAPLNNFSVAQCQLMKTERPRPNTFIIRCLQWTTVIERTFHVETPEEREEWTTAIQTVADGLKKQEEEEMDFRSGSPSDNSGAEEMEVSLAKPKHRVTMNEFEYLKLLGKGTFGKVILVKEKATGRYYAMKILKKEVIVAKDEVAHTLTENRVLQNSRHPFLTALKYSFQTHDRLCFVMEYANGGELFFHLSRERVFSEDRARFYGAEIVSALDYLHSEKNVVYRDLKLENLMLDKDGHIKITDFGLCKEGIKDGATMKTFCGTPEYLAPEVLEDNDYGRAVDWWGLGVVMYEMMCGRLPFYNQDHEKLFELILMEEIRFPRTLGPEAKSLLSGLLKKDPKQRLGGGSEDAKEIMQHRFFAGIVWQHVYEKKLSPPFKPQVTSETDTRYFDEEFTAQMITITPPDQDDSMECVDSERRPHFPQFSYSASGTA

decrease in luminescence plus Akt1/PKB as compared to no Akt1/PKB [5] | Molecule | light output above that of untreated cells at maximal levels ([1]; CPM-hRL/RIIβB X=4, Y=20 (201325.78.E5)) [fold] | pEC50 ([1]; Homo sapiens, HEK293, CPM-hRL/RIIβB X=4, Y=20 (201325.78.E5), read-out: EC50 of the forskolin response) | increase in light output from transfected cells [2] | increase in light output ([3]; HEK293 cells stably expressing CPM91-hRL/RIIβB, isopreterenol and forskolin treatment) | increase in light output from transfected cells ([3]; HEK 293 transiently transfected with CPM-hRL Luc/RIIβB (X=4, Y=20) constructs, 10 μM isopreterenol or 50 μM forskolin alone) | fold of induction ([4]; 384-well plate, induced with 20 forskolin (so in the source), 15 minutes) [fold] | pEC50 ([4]; Homo sapiens, 0.25 h, HEK293 stably expressing CP234-Luc/RIIB, 96 well, luminescence at 15 minutes) | fold reduction in luminescence activity in the presence of calcium [6]
 | C=C[C@@]1(C)CC(=O)[C@]2(O)[C@@]3(C)[C@@H](O)CCC(C)(C)[C@@H]3[C@H](O)[C@H](OC(C)=O)[C@@]2(C)O1 [forskolin] | 3.6 | 7.23 | approximately 2 fold | about 5 fold | approximately 2 fold | 6.1 | 6.44 | 
did not change | pBFB22: wild-type firefly luciferase control |  |  |  |  |  |  |  | No response
